# Measurements published in patent publication US8802597B2, “Herbicidal pyrimidines” (E I du Pont de Nemours and Company, priority 2003, dated 2014).
# Legend:
# Assay type in all cases: in vivo
# [1] = test system: cocklebur (Xanthium strumarium); experiment: Test B pre/postemergence
# Source text: (§1) Seeds selected from barnyardgrass (Echinochloa crus-galli), Surinam grass (Brachiaria decumbens), cocklebur (Xanthium strumarium), corn (Zea mays), crabgrass (Digitaria sanguinalis), giant foxtail (Setaria faberii), lambsquarters (Chenopodium album), morningglory (Ipomoea coccinea), pigweed (Amaranthus retroflexus), velvetleaf (Abutilon theophrasti), and wheat (Triticum aestivum) were planted and treated preemergence with test chemicals formulated in a non-phytotoxic solvent mixture which included a surfactant.
# (§2) At the same time, plants selected from these crop and weed species and also blackgrass (Alopecurus myosuroides) and wild oat (Avena fatua) were treated with postemergence applications of test chemicals formulated in the same manner. Plants ranged in height from 2 to 18 cm (1- to 4-leaf stage) for postemergence treatments. Plant species in the flooded paddy test consisted of rice (Oryza sativa), umbrella sedge (Cyperus difformis), duck salad (Heteranthera limosa) and barnyardgrass (Echinochloa crus-galli) grown to the 2-leaf stage for testing. Treated plants and controls were maintained in a greenhouse for 13 to 15 days, after which time all species were compared to controls and visually evaluated. Plant response ratings, summarized in Table B, are based on a scale of 0 to 100 where 0 is no effect and 100 is complete control. A dash (-) response means no test result.
# [2] = test system: velvetleaf (Abutilon theophrasti); experiment: Test B pre/postemergence
# Source text: as §1, §2
# [3] = test system: morningglory (Ipomoea coccinea); experiment: Test B pre/postemergence
# Source text: as §1, §2
# [4] = test system: pigweed (Amaranthus retroflexus); experiment: Test B pre/postemergence
# Source text: as §1, §2
# [5] = test system: crabgrass (Digitaria sanguinalis); experiment: Test B pre/postemergence
# Source text: as §1, §2
# corn (Zea mays) = experiment: Test B pre/postemergence
# Source text: as §1, §2
# [6] = test system: wheat (Triticum aestivum); experiment: Test B pre/postemergence
# Source text: as §1, §2
# [7] = test system: giant foxtail (Setaria faberii); experiment: Test B pre/postemergence
# Source text: as §1, §2
# [8] = test system: Surinam grass (Brachiaria decumbens); experiment: Test B pre/postemergence
# Source text: as §1, §2
# [9] = test system: lambsquarters (Chenopodium album); experiment: Test B pre/postemergence; settings: Postemergence; for Lambsquarters plant response rating: 125 g ai/ha, scale 0 to 100 (0 no effect, 100 complete control); for Plant response rating, Lambsquarters: 500 g ai/ha, scale 0 to 100
# Source text: as §1, §2
# [10] = test system: barnyardgrass (Echinochloa crus-galli); experiment: Test B pre/postemergence
# Source text: as §1, §2
# wild oat (Avena fatua) = experiment: Test B postemergence; settings: for Oat, Wild plant response rating: 125 g ai/ha, scale 0 to 100 (0 no effect, 100 complete control); for Plant response rating, Oat, Wild: 500 g ai/ha, scale 0 to 100
# Source text: as §1, §2
# [11] = test system: blackgrass (Alopecurus myosuroides); experiment: Test B postemergence; settings: for Blackgrass plant response rating: 125 g ai/ha, scale 0 to 100 (0 no effect, 100 complete control); for Plant response rating, Blackgrass: 500 g ai/ha, scale 0 to 100
# Source text: as §1, §2
# [12] = Postemergence, 125 g ai/ha, scale 0 to 100 (0 no effect, 100 complete control)
# [13] = Postemergence, 500 g ai/ha, scale 0 to 100
# [14] = Preemergence, 125 g ai/ha, scale 0 to 100 (0 no effect, 100 complete control)
# [15] = Preemergence, 500 g ai/ha, scale 0 to 100 (0 no effect, 100 complete control)
structure (smiles),measurement,setting,value
CCOC(=O)c1nc(C2CC2)nc(NOCc2ccccc2)c1Br [Compound 54],Cocklebur plant response rating,[1]; [12],20
same,"Plant response rating, Cocklebur",[1]; [13],80
same,"Plant response rating, Cocklebur",[1]; [14],50
same,"Plant response rating, Cocklebur",[1]; [15],90
same,Velvetleaf plant response rating,[2]; [12],50
same,"Plant response rating, Velvetleaf",[2]; [13],60
same,"Plant response rating, Velvetleaf",[2]; [14],10
same,"Plant response rating, Velvetleaf",[2]; [15],80
same,Morningglory plant response rating,[3]; [12],80
same,"Plant response rating, Morningglory",[3]; [13],90
same,"Plant response rating, Morningglory",[3]; [14],0
same,Pigweed plant response rating,[4]; [12],80
same,"Plant response rating, Pigweed",[4]; [13],90
same,"Plant response rating, Pigweed",[4]; [14],100
same,"Plant response rating, Pigweed",[4]; [15],100
same,Crabgrass plant response rating,[5]; [12],20
same,"Plant response rating, Crabgrass",[5]; [13],30
same,"Plant response rating, Crabgrass",[5]; [14],0
same,"Plant response rating, Crabgrass",[5]; [15],0
same,Corn plant response rating,corn (Zea mays); [12],0
same,"Plant response rating, Corn",corn (Zea mays); [13],20
same,"Plant response rating, Corn",corn (Zea mays); [14],0
same,"Plant response rating, Corn",corn (Zea mays); [15],0
same,Wheat plant response rating,[6]; [12],0
same,"Plant response rating, Wheat",[6]; [13],20
same,"Plant response rating, Wheat",[6]; [14],0
same,"Plant response rating, Wheat",[6]; [15],0
same,"Foxtail, Giant plant response rating",[7]; [12],20
same,"Plant response rating, Foxtail, Giant",[7]; [13],30
same,"Plant response rating, Foxtail, Giant",[7]; [14],0
same,"Plant response rating, Foxtail, Giant",[7]; [15],0
same,Surinam Grass plant response rating,[8]; [12],0
same,"Plant response rating, Surinam Grass",[8]; [13],0
same,"Plant response rating, Surinam Grass",[8]; [14],0
same,"Plant response rating, Surinam Grass",[8]; [15],0
same,Lambsquarters plant response rating,[9],80
same,"Plant response rating, Lambsquarters",[9],90
same,Barnyardgrass plant response rating,[10]; [12],0
same,"Plant response rating, Barnyardgrass",[10]; [13],70
same,"Plant response rating, Barnyardgrass",[10]; [14],0
same,"Plant response rating, Barnyardgrass",[10]; [15],40
same,"Oat, Wild plant response rating",wild oat (Avena fatua),0
same,"Plant response rating, Oat, Wild",wild oat (Avena fatua),40
same,Blackgrass plant response rating,[11],40
same,"Plant response rating, Blackgrass",[11],40
CCOC(=O)c1nc(C2CC2)nc(N2CCCC2)c1Br [Compound 56],Cocklebur plant response rating,[1]; [12],0
same,"Plant response rating, Cocklebur",[1]; [13],20
same,"Plant response rating, Cocklebur",[1]; [14],0
same,"Plant response rating, Cocklebur",[1]; [15],30
same,Velvetleaf plant response rating,[2]; [12],0
same,"Plant response rating, Velvetleaf",[2]; [13],0
same,"Plant response rating, Velvetleaf",[2]; [14],0
same,"Plant response rating, Velvetleaf",[2]; [15],30
same,Morningglory plant response rating,[3]; [12],0
same,"Plant response rating, Morningglory",[3]; [13],50
same,"Plant response rating, Morningglory",[3]; [15],20
same,Pigweed plant response rating,[4]; [12],50
same,"Plant response rating, Pigweed",[4]; [13],70
same,"Plant response rating, Pigweed",[4]; [15],80
same,Crabgrass plant response rating,[5]; [12],0
same,"Plant response rating, Crabgrass",[5]; [13],0
same,"Plant response rating, Crabgrass",[5]; [14],0
same,"Plant response rating, Crabgrass",[5]; [15],0
same,Corn plant response rating,corn (Zea mays); [12],0
same,"Plant response rating, Corn",corn (Zea mays); [13],0
same,"Plant response rating, Corn",corn (Zea mays); [14],0
same,"Plant response rating, Corn",corn (Zea mays); [15],0
same,Wheat plant response rating,[6]; [12],0
same,"Plant response rating, Wheat",[6]; [13],0
same,"Plant response rating, Wheat",[6]; [14],0
same,"Plant response rating, Wheat",[6]; [15],0
same,"Foxtail, Giant plant response rating",[7]; [12],0
same,"Plant response rating, Foxtail, Giant",[7]; [13],0
same,"Plant response rating, Foxtail, Giant",[7]; [14],0
same,"Plant response rating, Foxtail, Giant",[7]; [15],0
same,Surinam Grass plant response rating,[8]; [12],0
same,"Plant response rating, Surinam Grass",[8]; [13],0
same,"Plant response rating, Surinam Grass",[8]; [14],0
same,"Plant response rating, Surinam Grass",[8]; [15],0
same,Lambsquarters plant response rating,[9],20
same,"Plant response rating, Lambsquarters",[9],30
same,Barnyardgrass plant response rating,[10]; [12],0
same,"Plant response rating, Barnyardgrass",[10]; [13],30
same,"Plant response rating, Barnyardgrass",[10]; [14],0
same,"Plant response rating, Barnyardgrass",[10]; [15],0
same,"Oat, Wild plant response rating",wild oat (Avena fatua),0
same,"Plant response rating, Oat, Wild",wild oat (Avena fatua),20
same,Blackgrass plant response rating,[11],0
same,"Plant response rating, Blackgrass",[11],20
CCOC(=O)c1nc(C2CC2)nc(NOC)c1Br [Compound 52],Cocklebur plant response rating,[1]; [12],40
same,"Plant response rating, Cocklebur",[1]; [13],60
same,"Plant response rating, Cocklebur",[1]; [14],10
same,"Plant response rating, Cocklebur",[1]; [15],60
same,Velvetleaf plant response rating,[2]; [12],40
same,"Plant response rating, Velvetleaf",[2]; [13],50
same,"Plant response rating, Velvetleaf",[2]; [14],0
same,"Plant response rating, Velvetleaf",[2]; [15],30
same,Morningglory plant response rating,[3]; [12],90
same,"Plant response rating, Morningglory",[3]; [13],90
same,"Plant response rating, Morningglory",[3]; [14],10
same,"Plant response rating, Morningglory",[3]; [15],100
same,Pigweed plant response rating,[4]; [12],60
same,"Plant response rating, Pigweed",[4]; [13],90
same,"Plant response rating, Pigweed",[4]; [15],50
same,Crabgrass plant response rating,[5]; [12],0
same,"Plant response rating, Crabgrass",[5]; [13],60
same,"Plant response rating, Crabgrass",[5]; [14],0
same,"Plant response rating, Crabgrass",[5]; [15],0
same,Corn plant response rating,corn (Zea mays); [12],0
same,"Plant response rating, Corn",corn (Zea mays); [13],60
same,"Plant response rating, Corn",corn (Zea mays); [15],0
same,Wheat plant response rating,[6]; [12],0
same,"Plant response rating, Wheat",[6]; [13],20
same,"Plant response rating, Wheat",[6]; [14],0
same,"Plant response rating, Wheat",[6]; [15],0
same,"Foxtail, Giant plant response rating",[7]; [12],40
same,"Plant response rating, Foxtail, Giant",[7]; [13],60
same,"Plant response rating, Foxtail, Giant",[7]; [14],0
same,"Plant response rating, Foxtail, Giant",[7]; [15],0
same,Surinam Grass plant response rating,[8]; [12],0
same,"Plant response rating, Surinam Grass",[8]; [13],30
same,"Plant response rating, Surinam Grass",[8]; [14],0
same,"Plant response rating, Surinam Grass",[8]; [15],0
same,Lambsquarters plant response rating,[9],80
same,"Plant response rating, Lambsquarters",[9],90
same,Barnyardgrass plant response rating,[10]; [12],30
same,"Plant response rating, Barnyardgrass",[10]; [13],80
same,"Plant response rating, Barnyardgrass",[10]; [14],0
same,"Plant response rating, Barnyardgrass",[10]; [15],30
same,"Oat, Wild plant response rating",wild oat (Avena fatua),0
same,"Plant response rating, Oat, Wild",wild oat (Avena fatua),20
same,Blackgrass plant response rating,[11],0
same,"Plant response rating, Blackgrass",[11],50
